Assay results as given in patent US11319283B2, “Substituted cyclobutylbenzene compounds as indoleamine 2,3-dioxygenase (IDO) inhibitors” (MERCK SHARP & DOHME CORP., priority 2017, dated 2022).

Columns and labels:
Type in all cases: cell-based
IDO1 [1] = target: T1, IDO1 (Homo sapiens, UniProt P14902); experiment: IDO1 HEK293 Cellular Assay; conditions: HEK293 cells transfected with Flag-IDO1 vector, 20-24 hours, fluorescence readout
Protocol: IDO1 HEK293 Cellular Assay
Compounds to be tested were serially diluted in ten 3-fold steps in DMSO starting from 10 mM DMSO stocks. Compound dilutions or DMSO alone were then dispensed from the dilution plate into a Greiner black 384-well assay plate (catalog #781086) using an Echo 550 acoustic liquid handler (Labcyte).
HEK293 cell pellets were resuspended to 5×10^5 cells/mL in complete HEK293 culture media (89% DMEM, 10% FBS, 1% penicillin/streptomycin). Suspended cells (2 mL) were dispensed into each well of a 6-well Corning plate (Catalog #3516). Cells were allowed to attach and were incubated for 20 hours at 37° C. in a 5% CO2 incubator. Flag-IDO1 vector (Genscript True ORF Gold, 2 ug) in 150 uL of Opti-MEM medium was added to each well of a Corning 24 well plate (Cat #3527) and incubated for 5 minutes at room temperature. To each well of the 24-well plate was added […] Lipofectamine 2000 (Gibco) and the plate incubated at room temperature for 20-30 minutes. To each well of attached cells in the 6-well plate, […] of the transfection mix from the 24-well plate was gently added to each well and IDO1 protein was allowed to express for 24-30 hours at 37 degrees Celsius in a 5% CO2 incubator.
Media was removed from the cells which were then washed with 2 mL Dulbecco's phosphate-buffered saline (DPBS). After removal of DPBS, 0.5 mL of TrypLE (Gibco) was added and incubated at 5 minutes until cells lift from the surface of the wells. Complete HEK293 culture media (4 mL) was added to each well and cells were collected and pooled into a conical tube. Cells were pelleted at 200×g for 5 minutes and resuspended in an equal volume of complete DMEM medium. Cells were diluted to 4×10^5 cells per mL in complete HEK293 media. L-Tryptophan was added to give a final concentration of […]. The diluted transfected cells […] or nontransfected cells […] were dispensed into wells of Greiner black 384-well assay plates (catalog #781086) containing previously diluted compounds. The plate is briefly mixed and centrifuged at 200×g for 10 seconds to collect cells at the bottom of the plate. Plates were covered and incubated for 20-24 hours at 37 degrees C. in a 5% CO2 incubator. Afterwards […] of 0.5 M methyl isonipecotate in dimethyl sulfoxide was added to each well, mixed, sealed, and centrifuged at 500 rpm for 10 seconds. Plates were incubated at 37 degrees in a 5% CO2 incubator overnight to develop fluoresence. The plates are allowed to cool and then centrifuged for 1 minute at 1000×g. The resulting fluoresence was measured in an Envision plate reader (Perkin Elmer) with a 400/25 nm excitation filter and an 510/20 nm emission filter.
The fluoresence intensity of each well was corrected for the background observed in wells with untransfected cells and was expressed as a fraction of the intensity observed in wells of IDO1 transfected cells and DMSO only. Potencies were calculated by linear least squares fit to the four parameter logistic IC50 equation.

TDO = target: T2, TDO (Homo sapiens, UniProt P48775); experiment: TDO Cellular Assay in Frozen SW48 Cells; conditions: 300 uM L-tryptophan, about 48 hours, fluorescence readout
T2 construct: endogenous in cells; host or cells: SW48 cells (A2780 cells as control with minimal TDO activity)
How it was run: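 SW48 cells in RPMI with 300 uM L-tryptophan were incubated ~48 h at 37° C with compounds in ten 3-fold dilutions. Signal was corrected for A2780 background and normalised to DMSO-only SW48 wells, with IC50 from a four-parameter logistic fit.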

IDO1 [2] = target: T1, IDO1; experiment: IDO1 Cellular Assay in Hela Cells Stimulated with IFNγ; parameters: endogenous in cells; host or cells: HeLa cells stimulated with IFNγ (100 ng/mL); conditions: Hela cells stimulated with IFNγ 100 ng/mL, 300 uM L-tryptophan, about 48 hours, fluorescence readout
How it was run: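 HeLa cells with 300 uM L-tryptophan, IFNγ-stimulated (unstimulated cells as max-effect control), exposed to compound (ten 3-fold dilutions) for about 48 h at 37 °C. IC50 by four-parameter logistic fit.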

T1 sequence (P14902 whole entry): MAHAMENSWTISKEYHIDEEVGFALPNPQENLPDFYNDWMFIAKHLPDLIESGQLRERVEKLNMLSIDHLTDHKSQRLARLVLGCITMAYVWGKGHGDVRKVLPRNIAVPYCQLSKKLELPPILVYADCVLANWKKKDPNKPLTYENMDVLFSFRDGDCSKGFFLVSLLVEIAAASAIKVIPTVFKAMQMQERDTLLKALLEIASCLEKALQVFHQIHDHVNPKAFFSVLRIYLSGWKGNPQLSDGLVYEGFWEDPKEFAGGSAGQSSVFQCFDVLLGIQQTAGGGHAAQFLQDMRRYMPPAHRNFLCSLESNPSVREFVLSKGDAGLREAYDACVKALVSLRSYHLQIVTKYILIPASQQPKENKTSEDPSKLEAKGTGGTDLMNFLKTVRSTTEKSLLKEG
T2 sequence (P48775 whole entry): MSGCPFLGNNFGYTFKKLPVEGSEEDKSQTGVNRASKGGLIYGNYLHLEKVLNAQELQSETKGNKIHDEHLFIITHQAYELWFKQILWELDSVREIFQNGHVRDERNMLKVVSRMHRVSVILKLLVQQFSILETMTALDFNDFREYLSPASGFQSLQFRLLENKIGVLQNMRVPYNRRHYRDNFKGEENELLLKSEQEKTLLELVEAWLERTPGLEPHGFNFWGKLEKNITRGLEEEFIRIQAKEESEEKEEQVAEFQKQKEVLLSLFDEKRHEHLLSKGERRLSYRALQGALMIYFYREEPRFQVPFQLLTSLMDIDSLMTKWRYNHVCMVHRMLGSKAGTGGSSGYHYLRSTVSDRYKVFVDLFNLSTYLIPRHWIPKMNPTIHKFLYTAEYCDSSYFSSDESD

| IC50 (IDO1 [1]) [µM] | IC50 (TDO) [µM] | IC50 (IDO1 [2]) [µM] | Structure (SMILES) |
| --- | --- | --- | --- |
| 0.016 | 0.585 | 0.028 | O=C(Nc1ccc(C2(NC(=O)c3ncco3)CCC2)cc1)c1cccc(Cl)c1 [Example 12, N-(1-{4-[(3-chlorobenzene-1-carbonyl)amino]phenyl}cyclobutyl)-1,3-oxazole-2-carboxamide] |
| 0.023 | 1.21 | 0.039 | O=C(Nc1ccc(C2(NC(=O)c3cscn3)CCC2)cc1)c1cccc(Cl)c1 [Example 14, N-(1-{4-[(3-chlorobenzene-1-carbonyl)amino]phenyl}cyclobutyl)-1,3-thiazole-4-carboxamide] |
| 0.014 | 2.51 | 0.053 | O=C(Nc1ccc(C2(NC(=O)c3nccs3)CCC2)cc1)c1cccc(Cl)c1 [Example 15, N-(1-{4-[(3-chlorobenzene-1-carbonyl)amino]phenyl}cyclobutyl)-1,3-thiazole-2-carboxamide] |
| 0.125 | ≥ 10 | 0.108 | O=C(Nc1ccc(C2(NC(=O)c3ccc(Cl)cc3)CCC2)cc1)c1cncnc1 [Example 17, N-(4-{1-[(4-chlorobenzene-1-carbonyl)amino]cyclobutyl}phenyl)pyrimidine-5-carboxamide] |
| 0.092 | ≥ 10 | 0.092 | O=C(Nc1ccc(C2(NC(=O)c3cncnc3)CCC2)cc1)c1cccc(Cl)c1 [Example 18, N-(1-{4-[(3-chlorobenzene-1-carbonyl)amino]phenyl}cyclobutyl)pyrimidine-5-carboxamide] |
